According to PMC8217170, “Phase Ib dose-escalation study of the hypoxia-modifier Myo-inositol trispyrophosphate in patients with hepatopancreatobiliary tumors” (Nature Communications, 2021):

Test: Phase Ib dose escalation: safety and tolerability (CTCAE v4.03), MTD
Type: in vivo, human
Set-up: key to Hypercalcemia, CTCAE-Grade / Hypophosphatemia, CTCAE-Grade / Cholestasis, CTCAE-Grade / Nausea, CTCAE-Grade / Hypertension, CTCAE-Grade / Upper respiratory tract infection, CTCAE-Grade / Hyponatremia, CTCAE-Grade / Hypomagnesemia, CTCAE-Grade / Ascites & death due to rapid progression of malignancy, CTCAE-Grade / Hypokalemia, CTCAE-Grade / Pyrexia, CTCAE-Grade / Hyperphosphatemia, CTCAE-Grade / AV Block 1°, CTCAE-Grade / Palpations, CTCAE-Grade: 1 is the mildest form of the specific symptom; 5 is death
Conditions: for Hypercalcemia, CTCAE-Grade: relationship to IMP: Definitively
Source text: This first-in-patient investigator-initiated phase Ib dose-escalation study followed a 3 + 3 dose-escalation scheme with a planned maximal inclusion of 48 participants allocated to eight cohorts of increasing doses. Outcomes were safety, tolerability, pharmacokinetics, and preliminary efficacy of ITPP with participants in this exploratory, prospective, open-label and unblinded, unrandomized, single-center investigation being enrolled at the University Hospital Zurich (USZ), Switzerland. Written informed consent was obtained of all participants before study inclusion after a time of consideration of at least 24 h. Written consent included the reporting and publication of individual, anonymized patient data. The study adhered to the principles of the Declaration of Helsinki, current good clinical practice guidelines and all ethical regulations. The study protocol was approved by the responsible independent ethics committee of Zurich (KEK-ZH-Nr. 2014-0374) and the national regulatory authority Swissmedic (2015DR1009) and is provided in the Supplementary Note 1. The study setup was published before inclusion start[55] and the trial first registered at ClinicalTrials.gov (NCT02528526) on 11/11/2014. After 6 sequential reviews requiring minor editorial changes, final registration at ClinicalTrials.gov was obtained on the 08/18/2015. The first patient was included in the study 04/13/2015, with treatment started on the 04/27/2015. 4 patients were included in the trial before final registration at ClinicalTrials.gov (04/13/2015–07/20/2015). The last patient was included on the 06/12/2018, treatment started on the 06/18/2018 and the last treatment administered on 07/06/2018. Data cut-off for the study was the 12/31/2018. The manuscript was written in compliance with ICMJE guidelines.
Primary objectives were (i) assessment of the safety and tolerability of increasing doses of ITPP, and (ii) establishment of the MTD (primary endpoint) according to the dose escalation schema. The primary outcome was measured by collection of adverse effects information according to Common Terminology Criteria for Adverse Events (CTCAE, US National Cancer Institute, version 4.03). Safety objectives and outcomes were identical with the primary endpoint.
The study drug (brand name: OXY111A) was intravenously administered in 9 infusions, each lasting 8 h, over 3 weeks in an outpatient setting at the Phase 1 unit of the USZ Clinical Trials Center. Due to its anionic properties, ITPP acts a potent chelator of calcium. Therefore, administration with CaCl2 (Baxter) at a 1:0.75 molar ratio has been determined to prevent hypocalcaemia. Respective doses were calculated based on body surface area (DuBois/DuBois formula). Cohort 1 started at weekly doses of 5600 mg/m^2 weekly, equal to the maximal weekly dose tested in healthy volunteers (unpublished data from Normoxys®). Dose escalation was performed according to the predefined scheme (Fig. 1a, Supplementary Note 1: page 6) up to a maximum weekly dose of 43,700 mg/m^2. During infusion days, participants had continuous monitoring of vital signs and daily 12-electrode electrocardiograms. Electrolytes measurements and venous blood gas analyses were performed three-hourly, while complete blood count, coagulation and routine kidney/liver parameters were assessed twice daily.
Severity of encountered AE was assessed following the CTCAE guidelines. Serious AE were defined as events being life-threatening, necessitating hospitalization, resulting in death or birth defects. DLT was defined as any AE ≥ grade 3 and sTET as any grade 2 AE considered to be definitely, probably or possibly related to ITPP. […] MTD was defined as the dose preceding the level at which 1 patient experienced a DLT or ≥3 patients experienced a sTET (Supplementary Note 1: page 6). The window for DLT/sTET/MTD assessment was from first dose of ITPP until first dose of chemotherapy or 10d following the last ITPP infusion. […]

[1] = cohort 1, SAE, relationship to IMP: Unrelated

O=P1(O)OC2C3OP(=O)(O)OP(=O)(O)OC3C3OP(=O)(O)OP(=O)(O)OC3C2OP(=O)(O)O1 (centres unmarked) [ITPP, Myo-inositol trispyrophosphate]
Number of treatment-related toxicities (TET, at least possibly related to ITPP) (28 patients, all cohorts): 32
Hypomagnesemia, patients (all CTCAE grade I): 5/28
Hypophosphatemia, patients (all CTCAE grade I): 4/28
Hypercalcemia of free ionized calcium, share of patients (all cohorts): 67.9 % of patients
Hypercalcemia, share of ITPP-related AE (all cohorts): 59.4%
Hypomagnesemia/-phosphatemia, share of ITPP-related AE (all cohorts): 28.1%
Number of AE unlikely to be ITPP-induced (all cohorts): 24
Number of serious adverse events (SAE) (all cohorts): 7
Share of AE at least possibly related to ITPP (all cohorts): 57%
AV Block 1° (AE, not ITPP-related) (all cohorts, n = 28, total (%)): Total: 1 (3.6%)
Acute kidney injury grade 3 (AE, not ITPP-related) (all cohorts, n = 28, total (%)): Total: 1 (3.6%)
Ascites due to oncological progress (AE, not ITPP-related) (all cohorts, n = 28, total (%)): Total: 3 (10.7%)
C. difficile enteritis (AE, not ITPP-related) (all cohorts, n = 28, total (%)): Total: 1 (3.6%)
Cholestasis (AE, not ITPP-related) (all cohorts, n = 28, total (%)): Total: 1 (3.6%)
Fatigue (AE, not ITPP-related) (all cohorts, n = 28, total (%)): Total: 1 (3.6%)
Hypercalcemia (TET) (all cohorts, n = 28, total (%)): 19 (67.9%)
Hyperphosphatemia (TET) (all cohorts, n = 28, total (%)): Total: 1 (3.6%)
Hypertension (TET) (all cohorts, n = 28, total (%)): Total: 3(10.7%)
Hypokalemia (AE, not ITPP-related) (all cohorts, n = 28, total (%)): Total: 2 (7.1%)
Hypomagnesemia (TET) (all cohorts, n = 28, total (%)): Total: 5 (17.9%)
Hyponatremia (AE, not ITPP-related) (all cohorts, n = 28, total (%)): Total: 3 (10.7%)
Hypophosphatemia (TET) (all cohorts, n = 28, total (%)): Total: 4 (14.3%)
Icterus due to malignant obstruction (AE, not ITPP-related) (all cohorts, n = 28, total (%)): Total: 1 (3.6%)
Lower gastrointestinal bleeding (AE, not ITPP-related) (all cohorts, n = 28, total (%)): Total: 1 (3.6%)
Nausea & vomiting due to malignant infiltration of stomach (AE, not ITPP-related) (all cohorts, n = 28, total (%)): Total: 1 (3.6%)
Nausea (AE, not ITPP-related) (all cohorts, n = 28, total (%)): Total: 1 (3.6%)
Neutropenia (AE, not ITPP-related) (all cohorts, n = 28, total (%)): Total: 1 (3.6%)
Palpitations (AE, not ITPP-related) (all cohorts, n = 28, total (%)): Total: 1 (3.6%)
Pyrexia (AE, not ITPP-related) (all cohorts, n = 28, total (%)): Total: 2 (7.1%)
Upper respiratory tract infection (AE, not ITPP-related) (all cohorts, n = 28, total (%)): Total: 3 (10.7%)
Hyperphosphatemia, patients (asymptomatic, grade I): One
AV Block 1° (AE, not ITPP-related) (cohort 1, 1866 mg/m^2): 0
Acute kidney injury grade 3 (AE, not ITPP-related) (cohort 1, 1866 mg/m^2): 0
C. difficile enteritis (AE, not ITPP-related) (cohort 1, 1866 mg/m^2): 0
Cholestasis (AE, not ITPP-related) (cohort 1, 1866 mg/m^2): 0
Fatigue (AE, not ITPP-related) (cohort 1, 1866 mg/m^2): 0
Hypercalcemia (TET) (cohort 1, 1866 mg/m^2): 0
Hyperphosphatemia (TET) (cohort 1, 1866 mg/m^2): 0
Hypertension (TET) (cohort 1, 1866 mg/m^2): 0
Hypokalemia (AE, not ITPP-related) (cohort 1, 1866 mg/m^2): 0
Hypomagnesemia (TET) (cohort 1, 1866 mg/m^2): 0
Hyponatremia (AE, not ITPP-related) (cohort 1, 1866 mg/m^2): 0
Hypophosphatemia (TET) (cohort 1, 1866 mg/m^2): 0
Icterus due to malignant obstruction (AE, not ITPP-related) (cohort 1, 1866 mg/m^2): 0
Nausea & vomiting due to malignant infiltration of stomach (AE, not ITPP-related) (cohort 1, 1866 mg/m^2): 0
Nausea (AE, not ITPP-related) (cohort 1, 1866 mg/m^2): 0
Neutropenia (AE, not ITPP-related) (cohort 1, 1866 mg/m^2): 0
Palpitations (AE, not ITPP-related) (cohort 1, 1866 mg/m^2): 0
Upper respiratory tract infection (AE, not ITPP-related) (cohort 1, 1866 mg/m^2): 0
Pyrexia, CTCAE-Grade (cohort 1, AE, relationship to IMP: Unrelated): 1
Ascites & death due to rapid progression of malignancy, CTCAE-Grade [1]: 5
Lower gastrointestinal bleeding, CTCAE-Grade [1]: 2
AV Block 1° (AE, not ITPP-related) (cohort 2, 3732 mg/m^2): 0
Acute kidney injury grade 3 (AE, not ITPP-related) (cohort 2, 3732 mg/m^2): 0
Ascites due to oncological progress (AE, not ITPP-related) (cohort 2, 3732 mg/m^2): 0
C. difficile enteritis (AE, not ITPP-related) (cohort 2, 3732 mg/m^2): 0
Cholestasis (AE, not ITPP-related) (cohort 2, 3732 mg/m^2): 0
Fatigue (AE, not ITPP-related) (cohort 2, 3732 mg/m^2): 0
Hyperphosphatemia (TET) (cohort 2, 3732 mg/m^2): 0
Hypertension (TET) (cohort 2, 3732 mg/m^2): 0
Hypokalemia (AE, not ITPP-related) (cohort 2, 3732 mg/m^2): 0
Hyponatremia (AE, not ITPP-related) (cohort 2, 3732 mg/m^2): 0
Hypophosphatemia (TET) (cohort 2, 3732 mg/m^2): 0
Icterus due to malignant obstruction (AE, not ITPP-related) (cohort 2, 3732 mg/m^2): 0
Lower gastrointestinal bleeding (AE, not ITPP-related) (cohort 2, 3732 mg/m^2): 0
Nausea (AE, not ITPP-related) (cohort 2, 3732 mg/m^2): 0
Neutropenia (AE, not ITPP-related) (cohort 2, 3732 mg/m^2): 0
Palpitations (AE, not ITPP-related) (cohort 2, 3732 mg/m^2): 0
Pyrexia (AE, not ITPP-related) (cohort 2, 3732 mg/m^2): 0
Upper respiratory tract infection (AE, not ITPP-related) (cohort 2, 3732 mg/m^2): 0
Hypercalcemia, CTCAE-Grade (cohort 2, AE): 1
Hypomagnesemia, CTCAE-Grade (cohort 2, AE, relationship to IMP: Probably): 1
Nausea & Vomiting necessitating hospitalisation, CTCAE-Grade (cohort 2, SAE, relationship to IMP: Unrelated): 2
AV Block 1° (AE, not ITPP-related) (cohort 3, 5600 mg/m^2): 0
Acute kidney injury grade 3 (AE, not ITPP-related) (cohort 3, 5600 mg/m^2): 0
Ascites due to oncological progress (AE, not ITPP-related) (cohort 3, 5600 mg/m^2): 0
Fatigue (AE, not ITPP-related) (cohort 3, 5600 mg/m^2): 0
Hyperphosphatemia (TET) (cohort 3, 5600 mg/m^2): 0
Hypertension (TET) (cohort 3, 5600 mg/m^2): 0
Hypokalemia (AE, not ITPP-related) (cohort 3, 5600 mg/m^2): 0
Hypomagnesemia (TET) (cohort 3, 5600 mg/m^2): 0
Hyponatremia (AE, not ITPP-related) (cohort 3, 5600 mg/m^2): 0
Icterus due to malignant obstruction (AE, not ITPP-related) (cohort 3, 5600 mg/m^2): 0
Lower gastrointestinal bleeding (AE, not ITPP-related) (cohort 3, 5600 mg/m^2): 0
Nausea & vomiting due to malignant infiltration of stomach (AE, not ITPP-related) (cohort 3, 5600 mg/m^2): 0
Nausea (AE, not ITPP-related) (cohort 3, 5600 mg/m^2): 0
Neutropenia (AE, not ITPP-related) (cohort 3, 5600 mg/m^2): 0
Pyrexia (AE, not ITPP-related) (cohort 3, 5600 mg/m^2): 0
Upper respiratory tract infection (AE, not ITPP-related) (cohort 3, 5600 mg/m^2): 0
Hypercalcemia, CTCAE-Grade (cohort 3, AE): 1
Hypophosphatemia, CTCAE-Grade (cohort 3, AE, relationship to IMP: Probably): 1
Palpations, CTCAE-Grade (cohort 3, AE, relationship to IMP: Unrelated): 1
Cholestasis, CTCAE-Grade (cohort 3, SAE, relationship to IMP: Unlikely): 1
C. difficile enteritis, CTCAE-Grade (cohort 3, SAE, relationship to IMP: Unrelated): 3
AV Block 1° (AE, not ITPP-related) (cohort 4, 7000 mg/m^2): 0
C. difficile enteritis (AE, not ITPP-related) (cohort 4, 7000 mg/m^2): 0
Cholestasis (AE, not ITPP-related) (cohort 4, 7000 mg/m^2): 0
Hyperphosphatemia (TET) (cohort 4, 7000 mg/m^2): 0
Hypokalemia (AE, not ITPP-related) (cohort 4, 7000 mg/m^2): 0
Hypomagnesemia (TET) (cohort 4, 7000 mg/m^2): 0
Hyponatremia (AE, not ITPP-related) (cohort 4, 7000 mg/m^2): 0
